# Experimental data reported in patent publication US11814352B2, “Salts formed by 2-(1-acyloxy-n-pentyl) benzoic acid and basic amino acid or aminoguanidine, and preparation method and application thereof” (JIANGSU KANION PHARMACEUTICAL CO., LTD., priority 2018, dated 2023).
# Where “and” joins values, the source holds several entries; their conditions need not be identical. Equal entries are not always repeated. Structures can show the parent of a compound that is named as a salt. Where two headings read alike, the source gives them in different places.
# How the values were obtained:
# [1] = system: MCAO rats; experiment: Cerebral infarction, cerebral edema and nerve function of rats with focal cerebral ischemia (MCAO); format: in vivo, SD rats
# Method: The total number of the animals was 88.
# Sham operation group: equal volume of normal saline (containing 1% DMSO) (iv. 3 days), TTC, cerebral edema and neurological function score (n=8); […]
# The middle cerebral arteries of the rats were blocked by a suture-occluded method, and reperfused after 2 h. […] All drugs were formulated into normal saline solutions containing 1% DMSO for administration, and the duration of administration was controlled at approximately 1 min. […] 2 h after the last administration, the neurological defect scores were firstly obtained, and then the rats of each group were sacrificed. The whole brains were taken out and weighed (wet weight), TTC stained, and dried to determine the effects of the compounds on cerebral infarction and cerebral edema.
# 2 h after the last administration, the neurological defects of the animals were graded and scored by the Longa's method.
# After the neurobehavioral examination was completed, four coronal incisions were made on the whole brains of the rats on the optic chiasma and 2 mm anteroposterior positions of the optic chiasma. After the whole brains were cut into five slices, the brain slices were quickly placed in 5 ml of phosphate buffer solution containing 2% TTC, and incubated at 37° C. in the dark. In the incubation process, the brain slices were turned once every 5 min. After 10 min of incubation, the brain slices were taken out and pictures were taken with a digital camera (Olympus C-4000, Japan).
# The calculation formula of brain water content is as follows: Water content of brain tissue (%)=(wet weight of brain tissue−dry weight of brain tissue)/wet weight of brain tissue×100%; Cerebral edema rate (%)=water content of brain tissue of each group (%)−water content of brain tissue of sham operation group (%)/water content of brain tissue of sham operation group (%)×100%; Inhibition rate of cerebral edema (%)=(rate of cerebral edema of model group (%)−rate of cerebral edema of administration group (%))/rate of cerebral edema of model group (%)×100%.
# [2] = system: ADP induced platelet aggregation; experiment: In vitro anti-platelet aggregation, ADP induced (turbidimetry, PRP); format: cell-based, rabbits
# Method: (§1) The animals were used for experiments after 1 week.
# (§2) The common carotid artery was separated, and a polyethylene tube was inserted into the common carotid artery to collect blood. […] The upper beige suspension was pipetted to obtain the platelet-rich plasma (PRP). […] The PRP was adjusted with the PPP to make the platelet count at 1×10^8/mL.
# (§3) 260 μL of platelet-rich plasma (PRP) was added into a turbidimetric tube. Then 10 μL of test compounds with different concentrations, positive control drugs or normal saline were separately added, and the plasma was incubated at 37° C. for 5 min. Then 30 μL of inducers were added in sequence. The final concentration of an inducer ADP is 10 μM, and the final concentration of an inducer AA is 1 mM. […] Inhibition rate of platelet aggregation (IRPA)=(platelet aggregation rate of the control group−platelet aggregation rate of the experimental group)/platelet aggregation rate of the control group×100%.
# [3] = literature value; cited from earlier work
# [4] = system: AA induced platelet aggregation; experiment: In vitro anti-platelet aggregation, AA induced (turbidimetry, PRP); format: cell-based, rabbits
# Method: as §1, §2, §3
# [5] = Solubility test (saturated solubility in water); format: physicochemical; details: 25±2° C.
# Method: Test method: 10 mg of a test sample (solid was ground into fine powder) was weighed and added to a certain amount of solvent at 25±2° C. (the temperature of a water bath is controlled at 25° C.), and the solution was shaken vigorously for 30 s every 5 min. The dissolution was observed within 30 min. When there were no visible solute particles or droplets, the test sample was regarded as completely dissolved.
# [6] = system: arteriovenous bypass thrombosis in rats; experiment: Effect on arteriovenous bypass thrombosis in rats; format: in vivo, SD rats; details: 10 mg/kg/day tail vein 7 days; for Dry weight of thrombus / Wet weight of thrombus: 2 h after last dose; for inhibition at 10 mg/kg/day: Rattus norvegicus, 168 h
# Method: Male SD rats, weighing 250-280 g, purchased from Beijing Vital River Laboratory Animal Technology Co., Ltd., raised in an SPF breeding environment with indoor temperature controlled at 23±2° C., and allowed to freely eat and drink. The total number of the animals is 64.
# Model group: injected with the same volume of normal saline (containing 1% DMSO) through the tail vein, and administered continuously for 7 days. The test was started 2 h after the last dose (n=8).
# The dose of all drugs was 10 mg/kg/day. The drugs were formulated into normal saline solutions containing 1% DMSO, and injected through the tail vein for 7 consecutive days. The test was started 2 hours after the last dose (n=8).
# The rats were intraperitoneally injected with a 3% pentobarbital sodium solution (30 mg/kg). After anesthesia, the rats were immobilized in the supine position, and a median cervical incision was made to separate the right common carotid artery and left external jugular vein. A 6 cm long suture was put in the middle of a polyethylene tube (the suture needs to be weighed before being put in the tube), and the polyethylene tube was filled with heparin saline (50 U/mL). The polyethylene tube was inserted into the separated blood vessels to make the artery and vein form a loop. After 15 min of circulation of the blood flow, the suture was taken out, and the suture with thrombus was collected and weighed immediately. Then, after the suture was dried at room temperature for 24 h, the dry weight was determined. The total weight minus the weight of the suture was the wet weight of the thrombus, and the dry weight minus the weight of the suture was the dry weight of the thrombus.
# [7] = Concentration of metabolites in rat brain tissue after intravenous injection of I1s; format: in vivo; details: for Passage through the blood-brain barrier: detected in rat brain tissue after iv I1s; for concentration at 6 h: male, Sprague-Dawley, rat, brain, iv, 25 mg/kg, read-out: Concentration in brain tissue (single rats)
# Method: (§4) 12 clean SD male rats, provided by Qinglongshan Animal Breeding Farm in Jiangning District, Nanjing. The production license number is SCXK (Jiangsu) 2017-0001. The body weight of the rats ranges from 180 to 220 g. The rats were used after being raised in the laboratory of an experimental animal center for 2 days after purchase, fasted for 12 hours before administration and 6 hours after administration, and were allowed to freely drink during the test period.
# (§5) The concentration of the original drugs and metabolites in the rat blood were determined by LC-MS/MS, and WinNonlin pharmacokinetics professional software and a statistical moment method were used for calculation to obtain the corresponding pharmacokinetic parameters.
# [8] = Pharmacokinetics of metabolites in rat plasma after intravenous injection of I1s; format: in vivo, SD male rats; details: metabolite in rat plasma after I1s 25 mg/kg tail vein, rats 1-3
# Method: as §4, §5
# [9] = system: bleeding time in mice after tail cutting; experiment: Effect on bleeding time in mice after tail cutting; format: in vivo, Kunming mice; details: 5 mg/kg orally once a day for 14 days, 1 h after last dose
# Method: SPF Kunming mice, weighing 18-22 g, purchased from Beijing Vital River Laboratory Animal Technology Co., Ltd., having a certificate number of SCXK (Beijing) 2010-0002, raised in an SPF animal room with indoor temperature controlled at 23±2° C., and allowed to freely eat and drink. The day and night time was 12 h/12 h.
# The administration dose level of the positive drug groups and the test drug groups was 5 mg/kg, and the same amount of normal saline was given to the negative control group. All mice were administered for 14 consecutive days orally once a day. One hour after the last dose, the mice were anesthetized with 1-2% isoflurane, and the tails were cut for 5 mm. The tips of the tails were absorbed dry with filter paper every 30 seconds until the bleeding stopped naturally. Bleeding time is defined as the interval between the start and stop of bleeding.
# [10] = Concentration of metabolites in rat brain tissue after intravenous injection of I1s; format: in vivo; details: male, Sprague-Dawley, rat, brain, iv, 25 mg/kg; for concentration at 0.5 h: 0.5 h after intravenous injection of I1s; for concentration at 1 h: 1 h after intravenous injection of I1s
# [11] = iv 2 h after the beginning of reperfusion, 5 mg/kg
# [12] = iv at the beginning of reperfusion, 5 mg/kg
# [13] = read-out: IC50 ADP (10 μM), rabbit PRP, inducer ADP 10 μM, 37° C.
# [14] = read-out: IC50 AA (1 mM), rabbit PRP, inducer AA 1 mM, 37° C.
# [15] = MCAO rats, 10 mg/kg/day iv 3 days (combinations equimolar), first dose 2 h after reperfusion
# [16] = Oryctolagus cuniculus, Platelet, read-out: IC50 ADP (10 μM), rabbit PRP, inducer ADP 10 μM, 37° C.
# [17] = 6 h after intravenous injection of I1s
# [18] = male, Sprague-Dawley, rat, plasma, iv, 25 mg/kg
# [19] = male, Sprague-Dawley, rat, plasma, iv, 25 mg/kg, read-out: AUC(0-t)
# [20] = male, Sprague-Dawley, rat, plasma, iv, 25 mg/kg, read-out: Cmax
# [21] = read-out: Concentration in brain tissue (single rats)
# [22] = read-out: Concentration in brain tissue, Mean
compound,measurement,setting,value
"CCCCC(OC(=O)CC)c1ccccc1C(=O)O (racemic) (as salt: salt) [I2, L-Arginine (R/S)-2-(1-Propionyloxy-n-Pentyl) Benzoate]",melting point,,169 to 171 °C
"CCCCC(OC(=O)CCC)c1ccccc1C(=O)O (racemic) (as salt: salt) [I3, L-Arginine (R/S)-2-(1-N-Butyryloxy-n-Pentyl) Benzoate]",melting point,,152 to 153 °C
"CCCCC1OC(=O)c2ccccc21 (racemic) [(R/S)-NBP, racemic (R/S)-3-N-butyl-1(3H)-isobenzofuranone]",Cerebral edema,[1]; [11],6.72 ± 4.05%
same,Infarct volume,[1]; [11],36.50 ± 7.58%
same,Inhibition rate of cerebral edema,[1]; [11],28.80%
same,Inhibition rate of infarct volume,[1]; [11],26.43%
same,Cerebral edema,[1]; [12],5.80 ± 1.83%
same,Infarct volume,[1]; [12],28.55 ± 8.25%
same,Inhibition rate of cerebral edema,[1]; [12],40.21%
same,Inhibition rate of infarct volume,[1]; [12],41.96%
same,IC50,[2]; [13],1360 ± 130 µM
same,half-life,[3],44 min
same,IC50,[4]; [14],600 ± 70 µM
"CCCCC(O)c1ccccc1C(=O)[O-].[K+] (racemic) [PHPB, Potassium (R/S)-2-(1-hydroxy-n-pentyl) benzoate]",Cerebral edema,[1]; [15],10.71 ± 3.55%
same,Infarct volume,[1]; [15],20.23 ± 3.02%
same,Inhibition rate of cerebral edema,[1]; [15],33.23%
same,Inhibition rate of infarct volume,[1]; [15],51.66%
same,IC50,[2]; [13],960 ± 70 µM
same,half-life,[3],45 min
same,"Saturated solubility in H2O, Mean",[5],147.07 mg/mL
same,"Saturated solubility in H2O, dissolved sample amount (single determinations)",[5],148.30 mg/mL and 148.04 mg/mL and 145.97 mg/mL and 145.98 mg/mL
same,IC50,[4]; [14],350 ± 90 µM
same,Dry weight of thrombus,[6],8.90 ± 0.45
same,Wet weight of thrombus,[6],30.64 ± 10.21
same,Inhibition rate (dry weight of thrombus),[6]; vs model group,11.32%
same,Inhibition rate (wet weight of thrombus),[6]; vs model group,15.39%
"CCCC[C@H](OC(C)=O)c1ccccc1C(=O)O [(S)-APB, (S)-2-(1-acetoxy-n-pentyl)benzoic acid]",IC50,[2]; [16],790 ± 80 µM
same,Passage through the blood-brain barrier,[7],could all pass through the blood-brain barrier
same,concentration at 6 h,[7]; [17],26.1 ng/g
same,half-life,"[8]; male, Sprague-Dawley, rat, plasma, intravenous, 25 mg/kg",~180 min
same,AUC(0-inf),[8]; [18],31800 ng·h/mL
same,clearance,[8]; [18],13.1 mL/min/kg
same,half-life,[8]; [18],163 min
same,AUC(0-t),[8]; [19],31700 ng·h/mL
same,Cmax,[8]; [20],51400 ng/mL
same,AUC(0-t),[8]; listed as M2,28614.9 ng·h/mL and 28503.7 ng·h/mL
same,AUC(0-∞),[8]; listed as M2,28748.5 ng·h/mL and 28703.5 ng·h/mL
same,Cl,[8]; listed as M2,14.494 mL/min/kg and 14.516 mL/min/kg
same,Cmax,[8]; listed as M2,53513.2 ng/mL and 52069.2 ng/mL
same,Vz,[8]; listed as M2,4184.2 mL/kg and 4858.4 mL/kg
same,IC50,[4]; [14],430 ± 50 µM
CC(=O)Oc1ccccc1C(=O)O [Aspirin],IC50,[2]; [16],780 ± 50 µM
same,IC50,"[4]; Oryctolagus cuniculus, Platelet, read-out: IC50 AA (1 mM), rabbit PRP, inducer AA 1 mM, 37° C.",160 ± 10 µM
same,Bleeding time,[9],22.52 ± 1.31 min
same,Dry weight of thrombus,[6],6.06 ± 0.46
same,Wet weight of thrombus,[6],21.46 ± 1.76
same,inhibition at 10 mg/kg/day,"[6]; vs model group, read-out: Inhibition rate (dry weight of thrombus)",39.7%
same,inhibition at 10 mg/kg/day,"[6]; vs model group, read-out: Inhibition rate (wet weight of thrombus)",40.7%
COC(=O)[C@H](c1ccccc1Cl)N1CCc2sccc2C1 [Clopidogrel],Bleeding time,[9],25.28 ± 0.48 min
"CCCC[C@H](O)c1ccccc1C(=O)O [M3, (S)-2-(1-hydroxy-n-pentyl)benzoic acid]",Concentration in brain tissue (single rats),[7]; 0.5 h after intravenous injection of I1s,118.09 ng/g and 137.01 ng/g
same,Concentration in brain tissue (single rats),[7]; 1 h after intravenous injection of I1s,39.47 ng/g and 32.78 ng/g
same,Concentration in brain tissue (single rats),[7]; [17],31.33 ng/g and 32.14 ng/g
same,Passage through the blood-brain barrier,[7],could all pass through the blood-brain barrier
same,concentration at 6 h,[7]; [17],31.1 ng/g
same,AUC(0-inf),[8]; [18],624 ng·h/mL
same,clearance,[8]; [18],668 mL/min/kg
same,AUC(0-t),[8]; [19],518 ng·h/mL
same,Cmax,[8]; [20],737 ng/mL
same,AUC(0-t),[8],577.8 ng·h/mL and 492.6 ng·h/mL
same,AUC(0-∞),[8],673.9 ng·h/mL and 858.7 ng·h/mL
same,Cl,[8],618.2922 mL/min/kg and 485.2238 mL/min/kg
same,Cmax,[8],876.5 ng/mL and 569.2 ng/mL
same,concentration at 0.5 h,[10]; [21],76.8 ng/g
same,concentration at 0.5 h,[10]; [22],111 ng/g
same,concentration at 1 h,[10]; [21],35.5 ng/g
same,concentration at 1 h,[10]; [22],35.9 ng/g
same,concentration at 6 h,[10]; [17],31.5 ng/g
